Data on two compounds can be found in ChEMBL document CHEMBL4834461, “Intracellular fluorescence competition assay for inhibitor engagement of histone deacetylase” (Bioorg Med Chem Lett, 2021).

The target of one assay is Histone deacetylase 1 (Homo sapiens, UniProt Q13547). Kind of assay: Inhibition of HDAC1 (unknown origin).
The target in assay [1] is T1, Protein deacetylase HDAC6 (Homo sapiens, UniProt Q9UBN7).
T1 sequence (Q9UBN7 whole entry): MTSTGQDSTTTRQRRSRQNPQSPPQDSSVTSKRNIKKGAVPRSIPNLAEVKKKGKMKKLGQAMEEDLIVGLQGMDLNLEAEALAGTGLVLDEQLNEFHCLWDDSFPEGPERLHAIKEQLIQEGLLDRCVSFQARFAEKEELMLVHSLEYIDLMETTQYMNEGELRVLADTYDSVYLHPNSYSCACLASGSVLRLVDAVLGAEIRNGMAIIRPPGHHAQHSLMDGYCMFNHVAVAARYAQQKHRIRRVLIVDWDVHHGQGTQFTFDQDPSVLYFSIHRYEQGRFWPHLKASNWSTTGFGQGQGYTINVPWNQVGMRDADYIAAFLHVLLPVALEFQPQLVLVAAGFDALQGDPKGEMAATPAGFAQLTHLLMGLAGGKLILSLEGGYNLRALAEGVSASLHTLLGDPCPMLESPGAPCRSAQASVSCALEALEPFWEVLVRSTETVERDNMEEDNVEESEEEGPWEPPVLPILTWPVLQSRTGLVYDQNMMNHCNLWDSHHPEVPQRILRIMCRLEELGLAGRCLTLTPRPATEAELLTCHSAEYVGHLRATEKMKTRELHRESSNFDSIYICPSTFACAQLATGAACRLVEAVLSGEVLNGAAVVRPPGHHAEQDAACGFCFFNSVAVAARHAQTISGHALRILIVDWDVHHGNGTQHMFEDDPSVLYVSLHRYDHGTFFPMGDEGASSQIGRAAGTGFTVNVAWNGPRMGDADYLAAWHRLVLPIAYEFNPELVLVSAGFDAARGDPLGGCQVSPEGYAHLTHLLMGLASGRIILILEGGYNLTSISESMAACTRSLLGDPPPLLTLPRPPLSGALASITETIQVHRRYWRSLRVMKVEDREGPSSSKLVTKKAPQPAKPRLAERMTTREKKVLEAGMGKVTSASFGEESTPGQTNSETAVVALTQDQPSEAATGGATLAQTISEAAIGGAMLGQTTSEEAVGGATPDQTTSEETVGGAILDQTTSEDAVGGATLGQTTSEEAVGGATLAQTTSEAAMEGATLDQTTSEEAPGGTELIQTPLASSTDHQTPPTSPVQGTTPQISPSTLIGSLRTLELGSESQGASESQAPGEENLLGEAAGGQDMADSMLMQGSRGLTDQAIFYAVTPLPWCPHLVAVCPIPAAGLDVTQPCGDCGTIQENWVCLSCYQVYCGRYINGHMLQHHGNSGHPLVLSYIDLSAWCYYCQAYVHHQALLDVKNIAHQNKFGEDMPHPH
Kind of assay: Inhibition of HDAC6 (unknown origin).

Histone deacetylase 1, sequence (Q13547 whole entry): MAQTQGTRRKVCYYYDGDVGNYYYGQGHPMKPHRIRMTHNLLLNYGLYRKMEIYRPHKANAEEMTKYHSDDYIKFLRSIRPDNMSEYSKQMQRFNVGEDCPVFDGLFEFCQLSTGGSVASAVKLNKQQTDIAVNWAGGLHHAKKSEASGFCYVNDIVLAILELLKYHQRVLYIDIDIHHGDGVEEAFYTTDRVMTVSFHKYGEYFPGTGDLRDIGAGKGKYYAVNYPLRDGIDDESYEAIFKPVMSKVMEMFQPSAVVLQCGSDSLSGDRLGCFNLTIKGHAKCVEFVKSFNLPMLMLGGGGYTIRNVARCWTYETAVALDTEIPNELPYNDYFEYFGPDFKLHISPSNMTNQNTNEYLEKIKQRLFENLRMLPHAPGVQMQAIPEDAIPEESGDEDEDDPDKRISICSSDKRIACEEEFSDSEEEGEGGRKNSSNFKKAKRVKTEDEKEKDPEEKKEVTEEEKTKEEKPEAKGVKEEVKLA

Turning to `O=C(CCCCCN1C(=O)c2cccc3c(OCc4ccc(C(F)(F)F)cc4)ccc(c23)C1=O)NO`, the IC50 against Histone deacetylase 1 came to 280 nM; in assay [1], 12 nM.
Take `CCCNc1ccc2c3c(cccc13)C(=O)N(CCCC(=O)NO)C2=O`: the values for the IC50 (against Histone deacetylase 1; in assay [1]) were 9500 nM and 1120 nM, respectively.
